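Values below derive from 48-hour exposures of cells grown in 96-well plates, with endpoints linearly interpolated between the two concentrations bracketing the appropriate inhibition level. TGI is the concentration that stops growth completely.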
tested on: HCC-2998 colon; assay: NCI-60 cell line screen, 48 h

| Compound | TGI [µM] |
| --- | --- |
| Clc1ccc(/C=C/c2nc3ccccc3s2)cc1Cl | > 100 |
| O=C1CCC(=O)N1n1c(Cc2ccccc2)n[nH]c1=O | > 100 |
| CCOC(=O)c1c2ccccc2n2c(N)c(C(N)=O)nnc12 | > 100 |

tested on: NCI/ADR-RES ovarian; assay: NCI-60 cell line screen, 48 h

| Compound | TGI [µM] |
| --- | --- |
| Clc1ccc(/C=C/c2nc3ccccc3s2)cc1Cl | > 100 |
| O=C1CCC(=O)N1n1c(Cc2ccccc2)n[nH]c1=O | > 100 |
| CCOC(=O)c1c2ccccc2n2c(N)c(C(N)=O)nnc12 | > 100 |
| CC1=C(C)[C@@]2(C)O[C@@]2(C)O[C@@]2(C)O[C@@]12C | > 100 |

tested on: HCT-116 colon; assay: NCI-60 cell line screen, 48 h

| Compound | TGI [µM] |
| --- | --- |
| Clc1ccc(/C=C/c2nc3ccccc3s2)cc1Cl | 63.8 |
| O=C1CCC(=O)N1n1c(Cc2ccccc2)n[nH]c1=O | > 100 |
| CCOC(=O)c1c2ccccc2n2c(N)c(C(N)=O)nnc12 | > 100 |
| CC1=C(C)[C@@]2(C)O[C@@]2(C)O[C@@]2(C)O[C@@]12C | > 100 |

tested on: SNB-19 CNS; assay: NCI-60 cell line screen, 48 h

| Compound | TGI [µM] |
| --- | --- |
| Clc1ccc(/C=C/c2nc3ccccc3s2)cc1Cl | > 100 |
| O=C1CCC(=O)N1n1c(Cc2ccccc2)n[nH]c1=O | > 100 |
| CCOC(=O)c1c2ccccc2n2c(N)c(C(N)=O)nnc12 | 91.8 |
| CC1=C(C)[C@@]2(C)O[C@@]2(C)O[C@@]2(C)O[C@@]12C | > 100 |

tested on: PC-3 prostate; assay: NCI-60 cell line screen, 48 h

| Compound | TGI [µM] |
| --- | --- |
| Clc1ccc(/C=C/c2nc3ccccc3s2)cc1Cl | 3.66 |
| O=C1CCC(=O)N1n1c(Cc2ccccc2)n[nH]c1=O | > 100 |
| CCOC(=O)c1c2ccccc2n2c(N)c(C(N)=O)nnc12 | > 100 |
| CC1=C(C)[C@@]2(C)O[C@@]2(C)O[C@@]2(C)O[C@@]12C | > 100 |

tested on: NCI-H226 lung; assay: NCI-60 cell line screen, 48 h

| Compound | TGI [µM] |
| --- | --- |
| O=C1CCC(=O)N1n1c(Cc2ccccc2)n[nH]c1=O | > 100 |
| CC1=C(C)[C@@]2(C)O[C@@]2(C)O[C@@]2(C)O[C@@]12C | > 100 |

tested on: CCRF-CEM leukemia; assay: NCI-60 cell line screen, 48 h

| Compound | TGI [µM] |
| --- | --- |
| Clc1ccc(/C=C/c2nc3ccccc3s2)cc1Cl | > 100 |
| O=C1CCC(=O)N1n1c(Cc2ccccc2)n[nH]c1=O | > 100 |
| CCOC(=O)c1c2ccccc2n2c(N)c(C(N)=O)nnc12 | > 100 |

tested on: MCF7 breast; assay: NCI-60 cell line screen, 48 h

| Compound | TGI [µM] |
| --- | --- |
| Clc1ccc(/C=C/c2nc3ccccc3s2)cc1Cl | > 100 |
| O=C1CCC(=O)N1n1c(Cc2ccccc2)n[nH]c1=O | > 100 |
| CCOC(=O)c1c2ccccc2n2c(N)c(C(N)=O)nnc12 | > 100 |
| CC1=C(C)[C@@]2(C)O[C@@]2(C)O[C@@]2(C)O[C@@]12C | > 100 |

tested on: SNB-75 CNS; assay: NCI-60 cell line screen, 48 h

| Compound | TGI [µM] |
| --- | --- |
| Clc1ccc(/C=C/c2nc3ccccc3s2)cc1Cl | 40.9 |
| O=C1CCC(=O)N1n1c(Cc2ccccc2)n[nH]c1=O | > 100 |
| CCOC(=O)c1c2ccccc2n2c(N)c(C(N)=O)nnc12 | 30.8 |
| CC1=C(C)[C@@]2(C)O[C@@]2(C)O[C@@]2(C)O[C@@]12C | > 100 |

tested on: EKVX NSCLC; assay: NCI-60 cell line screen, 48 h

| Compound | TGI [µM] |
| --- | --- |
| Clc1ccc(/C=C/c2nc3ccccc3s2)cc1Cl | > 100 |
| O=C1CCC(=O)N1n1c(Cc2ccccc2)n[nH]c1=O | > 100 |
| CCOC(=O)c1c2ccccc2n2c(N)c(C(N)=O)nnc12 | > 100 |
| CC1=C(C)[C@@]2(C)O[C@@]2(C)O[C@@]2(C)O[C@@]12C | > 100 |

tested on: HOP-92 NSCLC; assay: NCI-60 cell line screen, 48 h

| Compound | TGI [µM] |
| --- | --- |
| Clc1ccc(/C=C/c2nc3ccccc3s2)cc1Cl | 72.3 |
| CC1=C(C)[C@@]2(C)O[C@@]2(C)O[C@@]2(C)O[C@@]12C | > 100 |

tested on: RXF 393 renal; assay: NCI-60 cell line screen, 48 h

| Compound | TGI [µM] |
| --- | --- |
| O=C1CCC(=O)N1n1c(Cc2ccccc2)n[nH]c1=O | > 100 |
| CCOC(=O)c1c2ccccc2n2c(N)c(C(N)=O)nnc12 | 41.6 |

tested on: OVCAR-3 ovarian; assay: NCI-60 cell line screen, 48 h

| Compound | TGI [µM] |
| --- | --- |
| Clc1ccc(/C=C/c2nc3ccccc3s2)cc1Cl | > 100 |
| O=C1CCC(=O)N1n1c(Cc2ccccc2)n[nH]c1=O | > 100 |
| CCOC(=O)c1c2ccccc2n2c(N)c(C(N)=O)nnc12 | > 100 |

tested on: SK-OV-3 ovarian; assay: NCI-60 cell line screen, 48 h

| Compound | TGI [µM] |
| --- | --- |
| Clc1ccc(/C=C/c2nc3ccccc3s2)cc1Cl | > 100 |
| O=C1CCC(=O)N1n1c(Cc2ccccc2)n[nH]c1=O | > 100 |
| CCOC(=O)c1c2ccccc2n2c(N)c(C(N)=O)nnc12 | 37.6 |
| CC1=C(C)[C@@]2(C)O[C@@]2(C)O[C@@]2(C)O[C@@]12C | > 100 |

tested on: T-47D breast; assay: NCI-60 cell line screen, 48 h

| Compound | TGI [µM] |
| --- | --- |
| Clc1ccc(/C=C/c2nc3ccccc3s2)cc1Cl | 9.77 |
| O=C1CCC(=O)N1n1c(Cc2ccccc2)n[nH]c1=O | > 100 |
| CCOC(=O)c1c2ccccc2n2c(N)c(C(N)=O)nnc12 | > 100 |
| CC1=C(C)[C@@]2(C)O[C@@]2(C)O[C@@]2(C)O[C@@]12C | > 100 |

tested on: HS 578T breast; assay: NCI-60 cell line screen, 48 h

| Compound | TGI [µM] |
| --- | --- |
| Clc1ccc(/C=C/c2nc3ccccc3s2)cc1Cl | 80.8 |
| O=C1CCC(=O)N1n1c(Cc2ccccc2)n[nH]c1=O | > 100 |
| CCOC(=O)c1c2ccccc2n2c(N)c(C(N)=O)nnc12 | 35.5 |
| CC1=C(C)[C@@]2(C)O[C@@]2(C)O[C@@]2(C)O[C@@]12C | > 100 |

tested on: NCI-H460 lung; assay: NCI-60 cell line screen, 48 h

| Compound | TGI [µM] |
| --- | --- |
| Clc1ccc(/C=C/c2nc3ccccc3s2)cc1Cl | > 100 |
| O=C1CCC(=O)N1n1c(Cc2ccccc2)n[nH]c1=O | > 100 |
| CCOC(=O)c1c2ccccc2n2c(N)c(C(N)=O)nnc12 | > 100 |

tested on: ACHN renal; assay: NCI-60 cell line screen, 48 h

| Compound | TGI [µM] |
| --- | --- |
| Clc1ccc(/C=C/c2nc3ccccc3s2)cc1Cl | > 100 |
| O=C1CCC(=O)N1n1c(Cc2ccccc2)n[nH]c1=O | > 100 |
| CCOC(=O)c1c2ccccc2n2c(N)c(C(N)=O)nnc12 | 26.6 |
| CC1=C(C)[C@@]2(C)O[C@@]2(C)O[C@@]2(C)O[C@@]12C | > 100 |

tested on: OVCAR-4 ovarian; assay: NCI-60 cell line screen, 48 h

| Compound | TGI [µM] |
| --- | --- |
| Clc1ccc(/C=C/c2nc3ccccc3s2)cc1Cl | 37.3 |
| O=C1CCC(=O)N1n1c(Cc2ccccc2)n[nH]c1=O | > 100 |
| CCOC(=O)c1c2ccccc2n2c(N)c(C(N)=O)nnc12 | > 100 |
| CC1=C(C)[C@@]2(C)O[C@@]2(C)O[C@@]2(C)O[C@@]12C | > 100 |

tested on: TK-10 renal; assay: NCI-60 cell line screen, 48 h

| Compound | TGI [µM] |
| --- | --- |
| Clc1ccc(/C=C/c2nc3ccccc3s2)cc1Cl | > 100 |
| O=C1CCC(=O)N1n1c(Cc2ccccc2)n[nH]c1=O | > 100 |
| CCOC(=O)c1c2ccccc2n2c(N)c(C(N)=O)nnc12 | 40.5 |
| CC1=C(C)[C@@]2(C)O[C@@]2(C)O[C@@]2(C)O[C@@]12C | > 100 |

tested on: HOP-62 NSCLC; assay: NCI-60 cell line screen, 48 h

| Compound | TGI [µM] |
| --- | --- |
| Clc1ccc(/C=C/c2nc3ccccc3s2)cc1Cl | 55.8 |
| O=C1CCC(=O)N1n1c(Cc2ccccc2)n[nH]c1=O | > 100 |
| CCOC(=O)c1c2ccccc2n2c(N)c(C(N)=O)nnc12 | 69.1 |
| CC1=C(C)[C@@]2(C)O[C@@]2(C)O[C@@]2(C)O[C@@]12C | > 100 |

tested on: MDA-N; assay: NCI-60 cell line screen, 48 h

| Compound | TGI [µM] |
| --- | --- |
| Clc1ccc(/C=C/c2nc3ccccc3s2)cc1Cl | > 100 |
| O=C1CCC(=O)N1n1c(Cc2ccccc2)n[nH]c1=O | > 100 |
| CCOC(=O)c1c2ccccc2n2c(N)c(C(N)=O)nnc12 | > 100 |
| CC1=C(C)[C@@]2(C)O[C@@]2(C)O[C@@]2(C)O[C@@]12C | > 100 |

tested on: HT29 colon; assay: NCI-60 cell line screen, 48 h

| Compound | TGI [µM] |
| --- | --- |
| Clc1ccc(/C=C/c2nc3ccccc3s2)cc1Cl | > 100 |
| O=C1CCC(=O)N1n1c(Cc2ccccc2)n[nH]c1=O | > 100 |
| CCOC(=O)c1c2ccccc2n2c(N)c(C(N)=O)nnc12 | > 100 |
| CC1=C(C)[C@@]2(C)O[C@@]2(C)O[C@@]2(C)O[C@@]12C | > 100 |

tested on: HL-60(TB) leukemia; assay: NCI-60 cell line screen, 48 h

| Compound | TGI [µM] |
| --- | --- |
| Clc1ccc(/C=C/c2nc3ccccc3s2)cc1Cl | > 100 |
| CCOC(=O)c1c2ccccc2n2c(N)c(C(N)=O)nnc12 | > 100 |

tested on: MOLT-4 leukemia; assay: NCI-60 cell line screen, 48 h

| Compound | TGI [µM] |
| --- | --- |
| Clc1ccc(/C=C/c2nc3ccccc3s2)cc1Cl | > 100 |
| O=C1CCC(=O)N1n1c(Cc2ccccc2)n[nH]c1=O | > 100 |
| CCOC(=O)c1c2ccccc2n2c(N)c(C(N)=O)nnc12 | > 100 |

tested on: NCI-H522 lung; assay: NCI-60 cell line screen, 48 h

| Compound | TGI [µM] |
| --- | --- |
| Clc1ccc(/C=C/c2nc3ccccc3s2)cc1Cl | > 100 |
| O=C1CCC(=O)N1n1c(Cc2ccccc2)n[nH]c1=O | > 100 |
| CCOC(=O)c1c2ccccc2n2c(N)c(C(N)=O)nnc12 | > 100 |
| CC1=C(C)[C@@]2(C)O[C@@]2(C)O[C@@]2(C)O[C@@]12C | > 100 |

tested on: UACC-62 melanoma; assay: NCI-60 cell line screen, 48 h

| Compound | TGI [µM] |
| --- | --- |
| Clc1ccc(/C=C/c2nc3ccccc3s2)cc1Cl | > 100 |
| O=C1CCC(=O)N1n1c(Cc2ccccc2)n[nH]c1=O | > 100 |
| CCOC(=O)c1c2ccccc2n2c(N)c(C(N)=O)nnc12 | 81.1 |
| CC1=C(C)[C@@]2(C)O[C@@]2(C)O[C@@]2(C)O[C@@]12C | > 100 |

tested on: SK-MEL-5 melanoma; assay: NCI-60 cell line screen, 48 h

| Compound | TGI [µM] |
| --- | --- |
| Clc1ccc(/C=C/c2nc3ccccc3s2)cc1Cl | > 100 |
| O=C1CCC(=O)N1n1c(Cc2ccccc2)n[nH]c1=O | > 100 |
| CCOC(=O)c1c2ccccc2n2c(N)c(C(N)=O)nnc12 | > 100 |
| CC1=C(C)[C@@]2(C)O[C@@]2(C)O[C@@]2(C)O[C@@]12C | > 100 |

tested on: UO-31 renal; assay: NCI-60 cell line screen, 48 h

| Compound | TGI [µM] |
| --- | --- |
| Clc1ccc(/C=C/c2nc3ccccc3s2)cc1Cl | 56 |
| O=C1CCC(=O)N1n1c(Cc2ccccc2)n[nH]c1=O | > 100 |
| CCOC(=O)c1c2ccccc2n2c(N)c(C(N)=O)nnc12 | > 100 |
| CC1=C(C)[C@@]2(C)O[C@@]2(C)O[C@@]2(C)O[C@@]12C | > 100 |

tested on: SF-268 CNS; assay: NCI-60 cell line screen, 48 h

| Compound | TGI [µM] |
| --- | --- |
| Clc1ccc(/C=C/c2nc3ccccc3s2)cc1Cl | > 100 |
| O=C1CCC(=O)N1n1c(Cc2ccccc2)n[nH]c1=O | > 100 |
| CCOC(=O)c1c2ccccc2n2c(N)c(C(N)=O)nnc12 | 56.3 |
| CC1=C(C)[C@@]2(C)O[C@@]2(C)O[C@@]2(C)O[C@@]12C | > 100 |

Reference: PubChem BioAssay (NCI)
